Measurements: patent US4092315A, “Novel crystalline forms of prazosin hydrochloride” (Pfizer Inc., priority 1976, dated 1978)
“Also recorded” adds a separate entry of the source.

Legend:
Format in all cases: physicochemical
[1] = Hygroscopicity: water content (Karl Fischer) of samples on exposure to humidity; conditions: for Water Content: 37° C.; for hygroscopicity (in words): compared with the other forms
Protocol: Since moisture uptake affects integrity of a drug form, the α-, β- and γ- crystalline polymorphs of prazosin hydrochloride were compared for their relative hygroscopicity. Samples of each polymorph were placed in an open beaker and stored in a chamber maintained at 37° C. and 75% relative humidity. Portions were withdrawn periodically and their water content determined by the Karl Fischer method.

[2] = Compressed disc (intrinsic) dissolution in water at 37° C.; conditions: slope between 4 and 10 minutes, 150 rpm, hydrochloride
Protocol: Compressed disc dissolution studies were carried out by means of the procedure developed by Hamlin et al., J. Pharm, Sci., 51, 432(1962). A 300 mg. sample of powder was compressed against a flat surface at 3000 psi. for 2 minutes into a flat round disc using a tablet die of 7/16 inch diameter. The die holding the compressed disc was stoppered at the open end and placed into a plastic holder. This assembly was then placed into a jar containing 1000 ml. of water equilibrated at 37° C. The stirring rate of a teflon paddle centered in the jar was maintained at 150 revolutions per minute. The solution was pumped continuously through a Millipore filter ([…] pore size) into a flow cell of a Beckman Acta II spectrophotometer which automatically recorded any absorbance changes at 246 nm.
Table VI compares the intrinsic dissolution rates of various forms of prazosin hydrochloride. The rates were determined from the slopes of the compressed disc dissolution profiles between 4 and 10 minutes.

[3] = Conversion to hydrate on contact with water (microscopy, trituration); conditions: drop of water on microscope slide or excess of water, hydrochloride
Text: When samples of the α-, β- and γ- polymorphs are triturated with water the resulting product in each case is found to give an infrared spectrum identical to that of the prazosin hydrochloride hydrates.
The β-form consisted of dark, monoclinic crystals, while the γ-form and polyhydrate are both needle-like crystals.
This is in agreement with the above mentioned change in the infrared spectra of the α-, β-, γ- polymorphs to that of the hydrates of prazosin hydrochloride upon trituration of each of the crystalline polymorphs with water. Stability Studies

[4] = Moisture uptake of anhydrate, monohydrate and dihydrate at room temperature, 75% relative humidity
Protocol: When samples of the anhydrate and monohydrate are stored at room temperature and 75% relative humidity they absorb moisture rapidly to form the dihydrate (8% water) in about 24 hours.

[5] = Hygroscopicity: water content (Karl Fischer) of samples on exposure to humidity; conditions: room temperature, 20% relative humidity, initially 13.5% water
[6] = 5 days, 75% R.H., hydrochloride
[7] = 12 days, 75% R.H., hydrochloride
[8] = 25 days, 75% R.H., hydrochloride
[9] = 34 days, 75% R.H., hydrochloride

COc1cc2nc(N3CCN(C(=O)c4ccco4)CC3)nc(N)c2cc1OC.Cl [α-form, 2-[4-(2-furoyl)piperazin-1-yl]-4-amino-6,7-dimethoxyquinazoline hydrochloride]
Water Content [1, 6]: 0.32 % by Weight
Water Content [1, 7]: 0.85 % by Weight
Water Content [1, 8]: 1.18 % by Weight
Water Content [1, 9]: 1.54 % by Weight
hygroscopicity (in words) ([1]; hydrochloride): relatively non-hydroscopic when compared with the β- and γ-forms; also recorded: non-hygroscopic
Intrinsic Dissolution Rate ([2]; listed as α-): 3.25 μg/liter sec.
conversion to hydrate on contact with water (in words) [3]: converted to the polyhydrate
conversion to hydrate on contact with water (in words) ([3]; listed as α-): sharp needle-like crystals of hydrate grew

COc1cc2nc(N3CCN(C(=O)c4ccco4)CC3)nc(N)c2cc1OC.Cl [γ-form, 2-[4-(2-furoyl)piperazin-1-yl]-4-amino-6,7-dimethoxyquinazoline hydrochloride]
Water Content [1, 6]: 0.16 % by Weight
Water Content [1, 7]: 4.61 % by Weight
Water Content [1, 8]: 9.47 % by Weight
Water Content [1, 9]: 9.05 % by Weight
hygroscopicity (in words) ([1]; hydrochloride): more hygroscopic then the β-form
change of form on exposure to moisture (in words) ([1]; infrared spectrum (KBr) after exposure to moisture): formation of a hydrate
Intrinsic Dissolution Rate ([2]; listed as γ-): 2.35 μg/liter sec.
conversion to hydrate on contact with water (in words) ([3]; listed as γ-forms): sharp needle-like crystals of hydrate grew

COc1cc2nc(N3CCN(C(=O)c4ccco4)CC3)nc(N)c2cc1OC.Cl [β-form, 2-[4-(2-furoyl)piperazin-1-yl]-4-amino-6,7-dimethoxyquinazoline hydrochloride]
Water Content [1, 6]: 0.59 % by Weight
Water Content [1, 7]: 1.18 % by Weight
Water Content [1, 8]: 4.66 % by Weight
Water Content [1, 9]: 6.06 % by Weight
hygroscopicity (in words) ([1]; hydrochloride): hygroscopic
Intrinsic Dissolution Rate ([2]; listed as β-): 3.36 μg/liter sec.
conversion to hydrate on contact with water (in words) ([3]; listed as β-): sharp needle-like crystals of hydrate grew

COc1cc2nc(N3CCN(C(=O)c4ccco4)CC3)nc(N)c2cc1OC.Cl [methanolate, 2-[4-(2-furoyl)piperazin-1-yl]-4-amino-6,7-dimethoxyquinazoline hydrochloride]
Intrinsic Dissolution Rate ([2]; listed as Methanolate): 2.68 μg/liter sec.

COc1cc2nc(N3CCN(C(=O)c4ccco4)CC3)nc(N)c2cc1OC.Cl [monohydrate, 2-[4-(2-furoyl)piperazin-1-yl]-4-amino-6,7-dimethoxyquinazoline hydrochloride]
reversion upon exposure to moist air (in words) ([4]; exposure to moist air): revert to polyhydrate

COc1cc2nc(N3CCN(C(=O)c4ccco4)CC3)nc(N)c2cc1OC.Cl [polyhydrate, 2-[4-(2-furoyl)piperazin-1-yl]-4-amino-6,7-dimethoxyquinazoline hydrochloride]
Water Content ([1]; 10 days, 75% relative humidity, initially 13.7% water): 13.2%
Water Content ([1]; 23 days, 75% relative humidity, initially 13.7% water): 13.4%
moisture ([1]; other samples exposed to high humidity): up to 15%
Intrinsic Dissolution Rate ([2]; listed as Polyhydrate): 2.57 μg/liter sec.
Water Content ([5]; 18 days): 13.0%
Water Content ([5]; 35 days): 13.1%

COc1cc2nc(N3CCN(C(=O)c4ccco4)CC3)nc(N)c2cc1OC.Cl [dihydrate, 2-[4-(2-furoyl)piperazin-1-yl]-4-amino-6,7-dimethoxyquinazoline hydrochloride]
equilibrium water content ([4]; after 4 days, room temperature, 75% relative humidity): 13.5%

COc1cc2nc(N3CCN(C(=O)c4ccco4)CC3)nc(N)c2cc1OC.Cl [anhydrate, 2-[4-(2-furoyl)piperazin-1-yl]-4-amino-6,7-dimethoxyquinazoline hydrochloride]
water content on storage (dihydrate formed) ([4]; about 24 hours, room temperature, 75% relative humidity): 8%
time to form the dihydrate ([4]; room temperature, 75% relative humidity): about 24 hours
Intrinsic Dissolution Rate ([2]; listed as Anhydrate): 2.35 μg/liter sec.
